Reference: patent US10385007B2, “Monamine and monoamine derivatives as inhibitors of leukotriene A4 hydrolase” (Celtaxsys, Inc., priority 2016, dated 2019)
Read-outs that look alike come from different tables or passages of the source.

Tests used:
[1] = tested on: LTB4 production in human whole blood; test: Whole blood assay (LTB4 release upon calcium ionophore, ELISA), human; format: cell-based; conditions: production of LTB4 in whole blood, calcium ionophore stimulation
Procedure: Compounds of the invention were tested for their ability as inhibitors of LTA4 hydrolase in a whole blood assay using human, mouse, rat or dog whole blood in a manner similar to that described in Penning, T. D. et al., J. Med. Chem. (2000), 43(4): 721-735. In this assay, compounds were tested for their ability to inhibit LTB4 release upon stimulation with calcium ionophore. The LTB4 levels in supernatants were measured by ELISA.

[2] = molecular target: T1, recombinant human LTA4 hydrolase (Homo sapiens, UniProt P09960); test: LTA4 hydrolase homogeneous time resolved fluorescence (HTRF) assay; format: biochemical
T1 sequence (P09960 1-611): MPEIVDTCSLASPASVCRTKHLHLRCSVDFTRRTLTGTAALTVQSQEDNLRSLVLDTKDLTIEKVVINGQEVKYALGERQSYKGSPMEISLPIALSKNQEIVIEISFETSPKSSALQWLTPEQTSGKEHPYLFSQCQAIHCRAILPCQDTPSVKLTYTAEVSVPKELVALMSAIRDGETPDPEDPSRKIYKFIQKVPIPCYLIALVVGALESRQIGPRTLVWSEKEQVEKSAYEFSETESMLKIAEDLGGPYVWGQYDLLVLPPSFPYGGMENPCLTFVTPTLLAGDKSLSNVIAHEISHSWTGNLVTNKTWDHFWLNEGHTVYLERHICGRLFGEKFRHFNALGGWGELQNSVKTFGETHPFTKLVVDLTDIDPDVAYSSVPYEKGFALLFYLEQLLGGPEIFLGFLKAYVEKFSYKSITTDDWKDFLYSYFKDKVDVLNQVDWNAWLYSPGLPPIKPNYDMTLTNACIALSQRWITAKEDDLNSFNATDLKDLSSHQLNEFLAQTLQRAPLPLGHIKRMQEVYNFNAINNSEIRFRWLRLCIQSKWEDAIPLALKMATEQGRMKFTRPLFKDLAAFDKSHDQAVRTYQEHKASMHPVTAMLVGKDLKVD
Procedure: Compounds of the invention were tested in the LTA4 hydrolase homogeneous time resolved fluorescence (HTRF) assay to determine their ability to inhibit the hydrolysis of LTA4 to LTB4. The assay analyzes the amount of LTB4 produced.
LTA4 HTRF assay is a two-step assay involving enzymatic conversion of LTA4 to LTB4, and subsequent quantification of LTB4, product with HTRF assay.
The enzymatic conversion of LTA4 to LTB4 was performed in 384-well plates at ambient temperature in a reaction mixture containing 50 mM HEPES (pH 7.5), 0.5% BSA (fatty acid free), 18 nM recombinant human LTA4 hydrolase, 150 nM LTA4, 1% DMSO in the absence or presence of a compound of the invention. Reaction was stopped after 10 minutes incubation by diluting the incubation mixture 10-fold in 50 mM phosphate, 0.1% casein buffer (pH 7.0).
LTB4 formed was quantified with the HTRF assay in which free LTB4 competes with LTB4-XL665 conjugate (acceptor) for anti-LTB4 monoclonal antibody labeled with Europium cryptate (donor), thereby inhibiting the fluorescence energy transfer.
The LTB4 HTRF 384-well assay was carried out by incubating LTB4 samples or standards with LTB4-XL665 conjugate (7.5 ng/well) and anti-LTB4 monoclonal antibody-Europium cryptate conjugate (0.5 ng/well) in 50 mM phosphate, 0.4 M KF and 0.1% casein, buffer (pH 7.0) for two hours at ambient temperature. Plates were read in a RubyStar plate reader (BmG Labtechnologies Inc., NC) simultaneously at 620 nm and 665 nm to obtain signal ratios of 665 nm/620 nm. Results of energy transfer were expressed as delta F (%) which equaled [(signal ratio of sample-signal ratio of negative control)/(signal ratio of negative control)]×100%. Negative controls were control samples without LTB4 or LTB4-XL665.
Sample LTB4 concentrations were calculated from the LTB4 standard curve using the 4-parameter fit equation. For determination IC50 values for a particular compound of the invention, eight serially diluted compound concentrations (at 1:3.16 dilution) were used in this assay. Controls without a compound of the invention or with a reference compound were run parallel in the same assay plate.

[3] = molecular target: T2, LTA4 hydrolase peptidase activity (Homo sapiens, UniProt P09960); test: Peptidase assay (hydrolysis of L-alanine-p-nitroanilide); format: biochemical; conditions: 29 nM enzyme, 1 mM L-alanine-p-nitroanilide, 1 hour
T2 sequence (P09960 1-611): T1 sequence (P09960 1-611)
Procedure: Inhibition of peptidase activity was measured for the compounds of the invention by using methods similar to those described in Kull, F. et al., The Journal of Biological Chemistry 1999, 274 (49): 34683-34690.
In brief, the enzyme (29 nM) was incubated with L-alanine-p-nitroanilide (1 mM) in 50 mM HEPES (pH 7.5), 100 mM KCL, 1% DMSO in the absence or presence of a compound of the invention for 1 hour at ambient temperature. Reaction was terminated by addition of acetic acid (1%). Formation of colored nitro-aniline was measured by the increase in absorbance at 405 nm in a Victor 2 plate reader (Wallac). Spontaneous hydrolysis of the substrate was corrected for by subtracting the absorbance of control incubations without enzyme.

[4] = inhibition of LTA4 to LTB4 hydrolysis, 18 nM enzyme, 150 nM LTA4, 10 minutes, read-out: Hydrolase IC50

SMILES | IC50 [1] | IC50 [2, 4] | IC50 [3] | IC50 [2]
COC(=O)C(N)Cc1ccc(Oc2ccc(Cc3ccccc3)cc2)cc1 (stereo not shown) [Example 8, methyl 3-[4-(4-benzylphenoxy)phenyl]-2-aminopropanoate] | 790 nM | 120 nM |  | 
CN(CCOc1ccc(Cc2ccccc2)cc1)Cc1ccccc1Oc1ccc(C(=O)O)cc1 [Example 4, [N-2-(4-benzylphenoxy)ethyl]-N-methyl-(2-aminomethylphenoxy)-4-benzoic acid] | 370 nM | 100 nM | 32 nM | 
NCc1cccnc1NCCOc1ccc(Cc2ccccc2)cc1 [Example 11, 2-(4-benzylphenoxy)ethylamino-3-aminomethylpyridine] |  | 300 nM | 180 nM | 
NCc1ccc(Oc2ccc(Cc3ccccc3)cc2)cc1 [Example 5, 4-(4-benzylphenoxy)benzylamine] | 150 nM | 270 nM |  | 
CCOC(=O)C(N)Cc1ccc(Oc2ccc(Cc3ccccc3)cc2)cc1 (stereo not shown) [Example 9, ethyl 3-[4-(4-benzylphenoxy)phenyl]-2-aminopropanoate] | 350 nM | 130 nM |  | 
NC(Cc1ccc(Oc2ccc(Cc3ccccc3)cc2)cc1)C(=O)O (stereo not shown) [Example 7, 3-[4-(4-benzylphenoxy)phenyl]-2-aminopropanoic acid] | 880 nM | 84 nM |  | 
NCCc1ccc(Oc2ccc(Cc3ccccc3)cc2)cc1 [Example 3, 4-benzylphenoxy-4-phenylethylamine] | 89 nM |  |  | 44 nM
NCCc1ccc(OCc2ccc(-c3ccccc3)cc2)cc1 [Example 2, (4-phenylphenyl-1-methoxy)-4-phenylethylamine] | 47 nM |  |  | 41 nM
NCc1ccc(OCc2ccc(-c3ccccc3)cc2)cc1 [Example 1, 1-(4-phenylphenyl-1-methoxy)-4-aminomethylbenzene] |  | 300 nM |  | 
NC(CO)Cc1ccc(Oc2ccc(Cc3ccccc3)cc2)cc1 (stereo not shown) [Example 10, 3-[4-(4-benzylphenoxy)phenyl]-2-aminopropanol] | 910 nM | 260 nM |  | 
CN(CCOc1ccc(Cc2ccccc2)cc1)Cc1ccc(C(=O)O)cc1 [Example 6, [N-2-(4-benzylphenoxy)ethyl]-N-methyl-aminomethyl-4-benzoic acid] | 310 nM | 21 nM |  | 
CN(CCOc1ccc(Cc2ccccc2)cc1)Cc1ccccc1Oc1cccc(C(=O)O)c1 [Example 12] | 150 nM | 15 nM | 23 nM | 
